Data on ten molecules can be found in patent US4026891A, “5- Or 6-pyridazinyl-benzimidazoles and salts thereof” (Boehringer Ingelheim GmbH, priority 1974, dated 1977).

Counter-ions that a name gives are not always drawn.

In experiment [1] the test system is isolated, spontaneously beating auricles of the guinea pig. The experiment is described as follows: positive inotropic (cardiotonic) activity on isolated auricles. In kind it is cell-based. To be noted: Cavia porcellus, 10^-5 gm/ml, 30° C., average of at least 5 auricles, read-out: Increase in the force of contraction in %. As to the method: 3. Determination of the positive inotropic (cardiotonic) activity
The positive inotropic activity was determined as the strengthening effect upon the force of contraction of isolated, spontaneously beating auricles of the guinea pig. Freshly isolated auricles were put into a bath of 100 ml of a tyrode solution at a temperature of 30° C. The tyrode solution was infused with carbogen (95% of O2 and 5% of CO2). The spontaneous contractions of the auricles were registered isometrically with a Statham-Force-Displacement-transducer FT 03 C on a Grass polygraph. The auricles were pre-stretched with 1 gm. After an equilibration period of 20-30 minutes the test compound was added at a concentration of 10^-^5 gm/ml.

The subject of experiment [2] is thrombocyte aggregation in platelet-rich plasma of healthy human donors. Kind of experiment: thrombocyte (platelet) aggregation inhibiting activity, method of Born and Cross, collagen-induced. To be noted: 10^-4 mol/l, optical density, read-out: Inhibition in % after addition of 10^-4 mol/l, O.D. The format is cell-based. As to the method:
(1) Determination of thrombocyte aggregation inhibiting activity by the method of Born and Cross [see J. Physiol. 170, 397 (1964)]:
The platelet aggregation inhibiting activity was determined in the platelet-rich plasma of healthy human donors. The rate of decline of the optical density of the platelet suspension was measured and recorded photometrically after the addition of commercial collagen containing 1 mgm of collagen fibrils per ml. From the angle of inclination of the density curve, the rate of aggregation was estimated (Vmax). The optical density was taken as the point on the curve where most light was transmitted (O.D.). To provoke maximum aggregation about 0.01 ml of the collagen solution was added to 1 ml of platelet-rich plasma.

The subject of experiment [3] is mongrel dogs (arterial blood pressure). The experiment is described as follows: hypotensive activity in anesthetized mongrel dogs. In kind it is in vivo, dog. The note with it: average of 3 tests. As to the method:
(2) Determination of the hypotensive activity:
The hypotensive activity was determined in mongrel dogs of both sexes (body weight between 19 and 26 kg) under chloralose/urethane (54+ 270 mgm/kg i.v.) and nembutal (10 mgm/kg i.v.) anesthesia. After tracheotomy, the animals were attached to a Harvard artificial respirator using normal air. The arterial blood pressure was measured in the arteria femoralis by a Statham pressure transducer P 23 Dc and registered on a Grass polygraph. The compound under investigation was administered in aqueous solution by intravenous injection into the vena saphena.

Consider `COc1ccc(-c2nc3ccc(-c4ccc(=O)[nH]n4)cc3[nH]2)cc1` [K, 2-(p-Methoxy-phenyl)-5(6)-(3'-oxo-2'H-6'-pyridazinyl)-benzimidazole methanesulfonate], for which, in experiment [1], the activation at 10 µg/mL is 33%.
For the molecule `O=C1CCC(c2ccc3nc(C(F)(F)F)[nH]c3c2)=NN1` [F, 2-trifluoromethyl-5(6)-(3'-oxo-4',5'-dihydro-2'H-6'-pyridazinyl)-benzimidazole], the inhibition at 100 µM in experiment [2] turned out to be 100%.
For the molecule `Cc1nc2ccc(C3=NNC(=O)CC3)cc2[nH]1` [Compound A, 2-Methyl-5(6)-(3'-oxo-4',5'-dihydro-2'H-6'-pyridazinyl)-benzimidazole hydrochloride], in experiment [2], the inhibition at 100 µM amounted to 100%. For the same molecule, the activation at 10 µg/mL in experiment [1] worked out at 30%. Moreover, in experiment [3] (0.25 mgm/kg i.v.), the “Decrease in blood pressure (figure after the slash)” value (from here on “Decrease … (figure after the slash)”) is recorded as 9 mm Hg and the “Decrease in blood pressure (figure before the slash)” value (“Decrease … (figure before the slash)” for short) worked out at 7 mm Hg. For the same molecule, in experiment [3] (1.0 mgm/kg i.v.), the “Decrease … (figure after the slash)” value was found to be 38 mm Hg and the “Decrease … (figure before the slash)” value is 26 mm Hg.
As to `O=C1CCC(c2ccc3nc[nH]c3c2)=NN1` [H, 5(6)-(3'-oxo-4',5'-dihydro-2'H-6'-pyridazinyl)-benzimidazole], the inhibition at 100 µM in experiment [2] amounted to 100%.
`O=C1CCC(c2ccc3nc(-c4ccccc4F)[nH]c3c2)=NN1` [E, 2-(o-Fluoro-phenyl)-5(6)-(3'-oxo-4',5'-dihydro-2'H-6'-pyridazinyl)-benzimidazole hydrochloride]: the activation at 10 µg/mL in experiment [1] was 15%.
With `COc1ccc(-c2nc3ccc(C4=NNC(=O)CC4)cc3[nH]2)c(OC)c1` [C, 2-(o,p-Dimethoxy-phenyl)-5(6)-(3'-oxo-4',5'-dihydro-2'H-6'-pyridazinyl)-benzimidazole], the activation at 10 µg/mL in experiment [1] was determined as 12%. In addition, in experiment [3] (0.25 mgm/kg i.v.), the “Decrease … (figure after the slash)” value is recorded as 44 mm Hg and the “Decrease … (figure before the slash)” value is 17 mm Hg. Further, in experiment [3] (1.0 mgm/kg i.v.), the “Decrease … (figure after the slash)” value is given as 44 mm Hg and the “Decrease … (figure before the slash)” value worked out at 33 mm Hg.
As for `Cc1nc2ccc(C3=NN(C)C(=O)CC3)cc2[nH]1` [G, 2-Methyl-5(6)-(2'-methyl-3'-oxo-4',5'-dihydro-2'H-6'-pyridazinyl)-benzimidazole hydrochloride], the activation at 10 µg/mL in experiment [1] came out at 13%.
Consider `Cc1nc2ccc(-c3ccc(=O)[nH]n3)cc2[nH]1` [B, 2-Methyl-5(6)-(3'-oxo-2'H-6'-pyridazinyl)-benzimidazole hydrochloride], for which the inhibition at 100 µM in experiment [2] was 100%. Moreover, the activation at 10 µg/mL in experiment [1] worked out at 20%. Moreover, in experiment [3] (0.5 mgm/kg i.v.), the “Decrease … (figure after the slash)” value is 25 mm Hg and the “Decrease … (figure before the slash)” value came to 18 mm Hg. For the same molecule, in experiment [3] (1.0 mgm/kg i.v.), the “Decrease … (figure after the slash)” value is recorded as 32 mm Hg and the “Decrease … (figure before the slash)” value was determined as 33 mm Hg.
Take `Cc1nc2ccc(-c3ccc(N4CCOCC4)nn3)cc2[nH]1` [D, 2-Methyl-5(6)-(3'-morpholino-6'-pyridazinyl)-benzimidazole]: the inhibition at 100 µM in experiment [2] came out at 89%.
Take `COc1ccc(-c2nc3ccc(C4=NNC(=O)CC4)cc3[nH]2)cc1` [Compound I, 2-(p-Methoxy-phenyl)-5(6)-(3'-oxo-4',5'-dihydro-2'H-6'-pyridazinyl)-benzimidazole]: the inhibition at 100 µM in experiment [2] amounted to 100%.
